Test results reported in ChEMBL document CHEMBL1909046, “DrugMatrix in vitro pharmacology data”.

How the values were obtained:
[1] = DRUGMATRIX: beta-Lactamase enzyme inhibition (substrate: Nitrocefin); parameters: species or system Bacillus cereus; details: Not Active = under 50% inhibition at 10 µM
B2 bradykinin receptor = target: T1, B2 bradykinin receptor (Homo sapiens, UniProt P30411); assay type: cell membranes, Membrane; details: chem-1; note: in other assays of this panel Not Active means under 50% inhibition at 10 µM
T1 sequence (P30411 whole entry): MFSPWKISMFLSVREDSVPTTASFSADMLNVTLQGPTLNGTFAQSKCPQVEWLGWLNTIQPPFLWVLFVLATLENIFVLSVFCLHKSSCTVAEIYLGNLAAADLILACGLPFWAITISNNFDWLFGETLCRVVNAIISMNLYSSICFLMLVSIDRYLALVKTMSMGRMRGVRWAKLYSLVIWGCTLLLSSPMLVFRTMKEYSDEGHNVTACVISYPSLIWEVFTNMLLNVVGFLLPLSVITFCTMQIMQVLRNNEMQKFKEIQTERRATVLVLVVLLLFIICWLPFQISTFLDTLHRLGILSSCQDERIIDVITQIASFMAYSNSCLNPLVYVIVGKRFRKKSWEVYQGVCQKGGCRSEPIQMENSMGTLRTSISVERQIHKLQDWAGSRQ

[2] = DRUGMATRIX: Calcium Channel Type L, Phenylalkylamine radioligand binding (ligand: [3H] (-)-Desmethoxyverapamil (D-888)); assay type: cell membranes, Rattus norvegicus, Wistar, Brain, Membrane; details: Not Active = under 50% inhibition at 10 µM
[3] = DRUGMATRIX: Glutamate, AMPA radioligand binding (ligand: [3H] AMPA); assay type: cell membranes, Rattus norvegicus, Wistar, Cerebral cortex, Membrane; details: Not Active = under 50% inhibition at 10 µM
[4] = DRUGMATRIX: Leukotriene, BLT (LTB4) radioligand binding (ligand: [3H]LTB4); assay type: cell membranes, Membrane; details: u-937; Not Active = under 50% inhibition at 10 µM
[5] = DRUGMATRIX: Phosphodiesterase PDE3 enzyme inhibition (substrate: [3H]cAMP + cAMP); assay type: tissue-based, Homo sapiens; details: platelet; Not Active = under 50% inhibition at 10 µM
[6] = target: T2, 5-hydroxytryptamine receptor 1A (Rattus norvegicus, UniProt P19327); assay type: cell membranes, CHO-K1, Membrane; details: cho-k1; note: in other assays of this panel Not Active means under 50% inhibition at 10 µM
T2 sequence (P19327 whole entry): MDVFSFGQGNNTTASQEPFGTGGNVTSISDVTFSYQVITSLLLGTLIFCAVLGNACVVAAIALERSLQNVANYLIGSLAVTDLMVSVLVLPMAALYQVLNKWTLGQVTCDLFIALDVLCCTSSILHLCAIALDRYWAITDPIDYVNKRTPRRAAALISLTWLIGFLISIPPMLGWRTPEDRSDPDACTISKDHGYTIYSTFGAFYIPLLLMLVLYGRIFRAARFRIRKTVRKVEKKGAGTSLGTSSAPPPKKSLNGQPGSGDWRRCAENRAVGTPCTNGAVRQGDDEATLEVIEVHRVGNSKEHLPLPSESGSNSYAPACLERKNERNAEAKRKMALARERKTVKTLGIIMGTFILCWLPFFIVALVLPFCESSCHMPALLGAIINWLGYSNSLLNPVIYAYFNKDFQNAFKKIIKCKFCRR

Cc1nnc2n1-c1ccc(Cl)cc1C(c1ccccc1)=NC2 [ALPRAZOLAM]
Not Active: IC50 [1] | Ki [1] | IC50 (B2 bradykinin receptor) | IC50 [2] | Ki [2] | IC50 [3] | Ki [3] | IC50 [4] | Ki [4] | IC50 [5] | Ki [5] | IC50 [6]

COC(=O)CCc1ccc(OCC(O)CNC(C)C)cc1 (centres undefined) [ESMOLOL]
Not Active: IC50 [1] | Ki [1] | IC50 (B2 bradykinin receptor) | IC50 [2] | Ki [2] | IC50 [3] | Ki [3] | IC50 [4] | Ki [4] | IC50 [5] | Ki [5] | IC50 [6]

COc1ccc2cc3[n+](cc2c1OC)CCc1cc2c(cc1-3)OCO2.[Cl-] [BERBERINE CHLORIDE]
Not Active: IC50 [1] | Ki [1] | IC50 (B2 bradykinin receptor) | IC50 [2] | Ki [2] | IC50 [3] | Ki [3] | IC50 [4] | Ki [4] | IC50 [5] | Ki [5] | IC50 [6]

NC(=O)C[S+]([O-])C(c1ccccc1)c1ccccc1 (centres undefined) [MODAFINIL]
Not Active: IC50 [1] | Ki [1] | IC50 (B2 bradykinin receptor) | IC50 [2] | Ki [2] | IC50 [3] | Ki [3] | IC50 [4] | Ki [4] | IC50 [5] | Ki [5] | IC50 [6]

CC(C)=CCC/C(C)=C/CO [GERANIOL]
Not Active: IC50 [1] | Ki [1] | IC50 (B2 bradykinin receptor) | IC50 [2] | Ki [2] | IC50 [3] | Ki [3] | IC50 [4] | Ki [4] | IC50 [5] | Ki [5] | IC50 [6]

NCCCC(O)(P(=O)(O)O)P(=O)(O)O [ALENDRONIC ACID]
Not Active: IC50 [1] | Ki [1] | IC50 (B2 bradykinin receptor) | IC50 [2] | Ki [2] | IC50 [3] | Ki [3] | IC50 [4] | Ki [4] | IC50 [5] | Ki [5] | IC50 [6]

C[C@@H]1CC[C@@]2(OC1)O[C@H]1[C@@H](O)[C@H]3[C@@H]4CC[C@H]5C[C@@H](O[C@@H]6O[C@H](CO)[C@H](O[C@@H]7O[C@H](CO)C(O)[C@H](O[C@@H]8OC[C@@H](O)[C@H](O)[C@H]8O)[C@H]7O[C@@H]7O[C@H](CO)[C@H](O)[C@H](O[C@@H]8O[C@H](CO)[C@@H](O)[C@H](O)[C@H]8O)[C@H]7O)[C@H](O)[C@H]6O)[C@H](O)C[C@]5(C)[C@H]4CC[C@]3(C)[C@H]1[C@@H]2C (some centres undefined) [DIGITONIN]
Not Active: IC50 [1] | Ki [1] | IC50 (B2 bradykinin receptor) | IC50 [2] | Ki [2] | IC50 [3] | Ki [3] | IC50 [4] | Ki [4] | IC50 [5] | Ki [5] | IC50 [6]

O=C1CN=C(c2ccccc2Cl)c2cc([N+](=O)[O-])ccc2N1 [CLONAZEPAM]
Not Active: IC50 [1] | Ki [1] | IC50 (B2 bradykinin receptor) | IC50 [2] | Ki [2] | IC50 [3] | Ki [3] | IC50 [4] | Ki [4] | IC50 [5] | Ki [5] | IC50 [6]

AURANOFIN
Not Active: IC50 [1] | Ki [1] | IC50 (B2 bradykinin receptor) | Ki (B2 bradykinin receptor) | IC50 [2] | Ki [2] | IC50 [3] | Ki [3] | IC50 [4] | Ki [4] | IC50 [5] | Ki [5] | IC50 [6] | Ki [6]

COC(=O)Nc1nc2ccc(C(=O)c3cccs3)cc2[nH]1 [NOCODAZOLE]
Not Active: IC50 [1] | Ki [1] | IC50 (B2 bradykinin receptor) | IC50 [2] | Ki [2] | IC50 [3] | Ki [3] | IC50 [4] | Ki [4] | IC50 [5] | Ki [5] | IC50 [6]

C[C@H]1O[C@@H](n2cc(F)c(=O)[nH]c2=O)[C@H](O)[C@@H]1O [DOXIFLURIDINE]
Not Active: IC50 [1] | Ki [1] | IC50 (B2 bradykinin receptor) | IC50 [2] | Ki [2] | IC50 [3] | Ki [3] | IC50 [4] | Ki [4] | IC50 [5] | Ki [5] | IC50 [6]

CC(C(=O)O)c1ccc2oc(-c3ccc(Cl)cc3)nc2c1 (centres undefined) [BENOXAPROFEN]
Not Active: IC50 [1] | Ki [1] | IC50 (B2 bradykinin receptor) | IC50 [2] | Ki [2] | IC50 [3] | Ki [3] | IC50 [4] | Ki [4] | IC50 [5] | Ki [5] | IC50 [6]

GADOPENTETATE DIMEGLUMINE
Not Active: IC50 [1] | Ki [1] | IC50 (B2 bradykinin receptor) | Ki (B2 bradykinin receptor) | IC50 [2] | Ki [2] | IC50 [3] | Ki [3] | IC50 [4] | Ki [4] | IC50 [5] | Ki [5] | IC50 [6] | Ki [6]

Nc1ccc2c3c(cccc13)C(=O)NC2=O
Not Active: IC50 [1] | Ki [1] | IC50 (B2 bradykinin receptor) | IC50 [2] | Ki [2] | IC50 [3] | Ki [3] | IC50 [4] | Ki [4] | IC50 [5] | Ki [5] | IC50 [6]

C[n+]1ccccc1/C=N/O.[Cl-] [PRALIDOXIME CHLORIDE]
Not Active: IC50 [1] | Ki [1] | IC50 (B2 bradykinin receptor) | IC50 [2] | Ki [2] | IC50 [3] | Ki [3] | IC50 [4] | Ki [4] | IC50 [5] | Ki [5] | IC50 [6]

NNc1nncc2ccccc12 [HYDRALAZINE]
Not Active: IC50 [1] | Ki [1] | IC50 (B2 bradykinin receptor) | IC50 [2] | Ki [2] | IC50 [3] | Ki [3] | IC50 [4] | Ki [4] | IC50 [5] | Ki [5] | IC50 [6]

O=c1cnn([C@@H]2O[C@H](CO)[C@@H](O)[C@H]2O)c(=O)[nH]1 [6-AZAURIDINE]
Not Active: IC50 [1] | Ki [1] | IC50 (B2 bradykinin receptor) | IC50 [2] | Ki [2] | IC50 [3] | Ki [3] | IC50 [4] | Ki [4] | IC50 [5] | Ki [5] | IC50 [6]

Cn1c(=O)c2c(ncn2CC(O)CO)n(C)c1=O (centres undefined) [DYPHYLLINE]
Not Active: IC50 [1] | Ki [1] | IC50 (B2 bradykinin receptor) | IC50 [2] | Ki [2] | IC50 [3] | Ki [3] | IC50 [4] | Ki [4] | IC50 [5] | Ki [5] | IC50 [6]

O=c1cc(N2CCOCC2)oc2c(-c3ccccc3)cccc12 [LY-294002]
Not Active: IC50 [1] | Ki [1] | IC50 (B2 bradykinin receptor) | IC50 [2] | Ki [2] | IC50 [3] | Ki [3] | IC50 [4] | Ki [4] | IC50 [5] | Ki [5] | IC50 [6]

C[C@@H]1C[C@H]2[C@@H]3CCC4=CC(=O)C=C[C@]4(C)[C@@]3(F)[C@@H](O)C[C@]2(C)[C@H]1C(=O)CO [DESOXIMETASONE]
Not Active: IC50 [1] | Ki [1] | IC50 (B2 bradykinin receptor) | IC50 [2] | Ki [2] | IC50 [3] | Ki [3] | IC50 [4] | Ki [4] | IC50 [5] | Ki [5] | IC50 [6]

CN1[C@@H]2CC[C@H]1C[C@@H](OC(=O)C(CO)c1ccccc1)C2 (some centres undefined) [ATROPINE]
Not Active: IC50 [1] | Ki [1] | IC50 (B2 bradykinin receptor) | IC50 [3] | Ki [3] | IC50 [4] | Ki [4] | IC50 [5] | Ki [5] | IC50 [6]
